For this assay, the system named is 151 inflammatory mediators. In words: Low density array (LDA) of 151 inflammatory mediators, lung mRNA of LPS challenged mice. The format is in vivo. The note with it: 5 mg/kg i.p. 30 min after LPS, 3 h. On the procedure:
FIG. 7. […] Lungs were removed, snap frozen and homogenised under liquid nitrogen before RNA was isolated and run on a low density gene array consisting of 151 inflammatory markers (A). […] Of these genes the pro-inflammatory cytokines TNF and IL-6, and the neutrophil chemoattractants CXCL1 and CXCL2, in addition to the chemokines CCL2 and CCL7 are further depicted (D). Data were analysed by one way ANOVA with Newman-Keuls Post Hoc test:, **p<0.01, *p<0.05.
In order to identify potential PAR1-regulated cytokine/chemokine candidates involved in LPS-induced ALI, a low density array (LDA) designed to profile 151 inflammatory mediators was used (FIG. 7a, FIG. 9). Total RNA was extracted from pulverised frozen pulverised lung using TRIzol (see manufacture's protocol (Invitrogen)), DNase treated using a DNA free kit (Ambion) and cDNA synthesised from 1 μg RNA/per sample using a Superscript kit (Invitrogen). Expression levels of known inflammatory mediators were analysed in cDNA using Taqman low density array qPCR chips and normalized to 18 s. Transcript data was analysed using the Gene Expression Similarity Suite (Genesis) software^51 and data represented as a heat map following log2 transformation and normalisation. Relative fold-difference in expression was calculated using the ΔΔT method with the saline treated group as the calibrator reference. […] The differential gene expression profile included the upregulation of several genes known to be important for the generation of inflammatory responses, such as TNF, interleukins, CXC chemokines and CC chemokines, including CCL2, CCL3, CCL4, CCL7, CCL22, CXCL1, CXCL2, CXCL10, CXCL13 and CX3CL1.

Take `NCC[C@H](NC(=O)[C@H](Cc1ccc(F)c(F)c1)NC(=O)Nc1ccc2c(CN3CCCC3)nn(Cc3c(Cl)cccc3Cl)c2c1)C(=O)NCc1ccccc1` [RWJ-58259]: the “CCL2 (MCP-1) mRNA expression in lung” value is listed as “decreased”, the “CCL7 (MCP-3) mRNA expression in lung” value is “decreased”, the “CXCL1 mRNA expression in lung” value was “unaffected” and the “CXCL2 mRNA expression in lung” value is “unaffected”. Besides, the “IL-6 mRNA expression in lung” value was “unaffected” and the “TNF mRNA expression in lung” value is reported as “unaffected”. In addition, the “number of genes (markers) with decreased expression following PAR1 antagonism” value (array of 151 markers) was 25 genes.

These data come from patent US20150079105A1, “TREATMENT OF ACUTE INFLAMMATION IN THE RESPIRATORY TRACT” (UCL Business PLC, priority 2012, published 2015).
